BigSolDB 2.1

Which solubility (mole fraction) (in acetone, 293.15 K) does the source give for `O=C(O)c1ccc[nH]c1=O` here?
The solubility (mole fraction) was 0.00135.

And the solubility (mole fraction) (in acetone, 303.15 K)?
Its solubility (mole fraction) is 0.00199.

What about the solubility (mole fraction) (in acetone, 308.15 K) of the same compound?
The solubility (mole fraction) was 0.00233.

What about the solubility (mole fraction) (in acetone, 313.15 K) of the same compound?
Its solubility (mole fraction) is 0.00277.

And the solubility (mole fraction) (in acetone, 318.15 K)?
The solubility (mole fraction) was 0.0033.

And the solubility (mole fraction) (in acetone, 323.15 K)?
Its solubility (mole fraction) is 0.00374.

And the solubility (mole fraction) (in acetonitrile, 293.15 K)?
Its solubility (mole fraction) is 0.000837.

And the solubility (mole fraction) (in acetonitrile, 303.15 K)?
The solubility (mole fraction) was 0.00116.

And the solubility (mole fraction) (in acetonitrile, 313.15 K)?
The solubility (mole fraction) was 0.00169.

What about the solubility (mole fraction) (in acetonitrile, 318.15 K) of the same compound?
The solubility (mole fraction) was 0.0019.

What about the solubility (mole fraction) (in acetonitrile, 323.15 K) of the same compound?
The solubility (mole fraction) was 0.00218.

And the solubility (mole fraction) (in acetonitrile, 333.15 K)?
The solubility (mole fraction) was 0.00282.

What about the solubility (mole fraction) (in ethanol, 293.15 K) of the same compound?
The solubility (mole fraction) was 0.000992.

What about the solubility (mole fraction) (in ethanol, 303.15 K) of the same compound?
The solubility (mole fraction) was 0.00134.

What about the solubility (mole fraction) (in ethanol, 313.15 K) of the same compound?
The solubility (mole fraction) was 0.00177.

What about the solubility (mole fraction) (in ethanol, 318.15 K) of the same compound?
Its solubility (mole fraction) is 0.00218.

And the solubility (mole fraction) (in ethanol, 323.15 K)?
Its solubility (mole fraction) is 0.0025.

What about the solubility (mole fraction) (in ethanol, 333.15 K) of the same compound?
Its solubility (mole fraction) is 0.00351.

What about the solubility (mole fraction) (in ethyl acetate, 293.15 K) of the same compound?
The solubility (mole fraction) was 0.000248.

What about the solubility (mole fraction) (in ethyl acetate, 303.15 K) of the same compound?
Its solubility (mole fraction) is 0.000365.

And the solubility (mole fraction) (in ethyl acetate, 313.15 K)?
Its solubility (mole fraction) is 0.000559.

What about the solubility (mole fraction) (in ethyl acetate, 318.15 K) of the same compound?
Its solubility (mole fraction) is 0.000661.

And the solubility (mole fraction) (in ethyl acetate, 323.15 K)?
Its solubility (mole fraction) is 0.000795.

And the solubility (mole fraction) (in ethyl acetate, 333.15 K)?
Its solubility (mole fraction) is 0.00124.

What about the solubility (mole fraction) (in isopropanol, 293.15 K) of the same compound?
The solubility (mole fraction) was 0.000278.

What about the solubility (mole fraction) (in isopropanol, 303.15 K) of the same compound?
Its solubility (mole fraction) is 0.000401.

What about the solubility (mole fraction) (in isopropanol, 313.15 K) of the same compound?
Its solubility (mole fraction) is 0.000565.

And the solubility (mole fraction) (in isopropanol, 318.15 K)?
The solubility (mole fraction) was 0.000595.

What about the solubility (mole fraction) (in isopropanol, 323.15 K) of the same compound?
Its solubility (mole fraction) is 0.000772.

What about the solubility (mole fraction) (in isopropanol, 333.15 K) of the same compound?
The solubility (mole fraction) was 0.00106.

What about the solubility (mole fraction) (in methanol, 293.15 K) of the same compound?
The solubility (mole fraction) was 0.00097.

And the solubility (mole fraction) (in methanol, 303.15 K)?
The solubility (mole fraction) was 0.00146.

And the solubility (mole fraction) (in methanol, 313.15 K)?
The solubility (mole fraction) was 0.0021.

What about the solubility (mole fraction) (in methanol, 318.15 K) of the same compound?
Its solubility (mole fraction) is 0.00253.

What about the solubility (mole fraction) (in methanol, 323.15 K) of the same compound?
Its solubility (mole fraction) is 0.00297.

What about the solubility (mole fraction) (in methanol, 333.15 K) of the same compound?
The solubility (mole fraction) was 0.00378.

And the solubility (mole fraction) (in n-butanol, 293.15 K)?
Its solubility (mole fraction) is 0.000215.

And the solubility (mole fraction) (in n-butanol, 303.15 K)?
The solubility (mole fraction) was 0.00031.

And the solubility (mole fraction) (in n-butanol, 313.15 K)?
Its solubility (mole fraction) is 0.000437.

What about the solubility (mole fraction) (in n-butanol, 318.15 K) of the same compound?
Its solubility (mole fraction) is 0.000515.

And the solubility (mole fraction) (in n-butanol, 323.15 K)?
Its solubility (mole fraction) is 0.000603.

What about the solubility (mole fraction) (in n-butanol, 333.15 K) of the same compound?
Its solubility (mole fraction) is 0.000817.

What about the solubility (mole fraction) (in n-butyl acetate, 293.15 K) of the same compound?
Its solubility (mole fraction) is 5.2e-05.

What about the solubility (mole fraction) (in n-butyl acetate, 303.15 K) of the same compound?
Its solubility (mole fraction) is 7.5e-05.

And the solubility (mole fraction) (in n-butyl acetate, 313.15 K)?
The solubility (mole fraction) was 0.000105.

And the solubility (mole fraction) (in n-butyl acetate, 318.15 K)?
The solubility (mole fraction) was 0.000124.

And the solubility (mole fraction) (in n-butyl acetate, 323.15 K)?
Its solubility (mole fraction) is 0.000146.

What about the solubility (mole fraction) (in n-butyl acetate, 333.15 K) of the same compound?
Its solubility (mole fraction) is 0.000197.

What about the solubility (mole fraction) (in sec-butanol, 293.15 K) of the same compound?
Its solubility (mole fraction) is 0.000138.

What about the solubility (mole fraction) (in sec-butanol, 303.15 K) of the same compound?
The solubility (mole fraction) was 0.000199.

And the solubility (mole fraction) (in sec-butanol, 313.15 K)?
Its solubility (mole fraction) is 0.000283.

What about the solubility (mole fraction) (in sec-butanol, 318.15 K) of the same compound?
The solubility (mole fraction) was 0.000331.

What about the solubility (mole fraction) (in sec-butanol, 323.15 K) of the same compound?
Its solubility (mole fraction) is 0.000384.

And the solubility (mole fraction) (in sec-butanol, 333.15 K)?
Its solubility (mole fraction) is 0.000525.

What about the solubility (mole fraction) (in water, 293.15 K) of the same compound?
Its solubility (mole fraction) is 0.000796.

What about the solubility (mole fraction) (in water, 303.15 K) of the same compound?
Its solubility (mole fraction) is 0.00111.

What about the solubility (mole fraction) (in water, 313.15 K) of the same compound?
The solubility (mole fraction) was 0.00159.

What about the solubility (mole fraction) (in water, 318.15 K) of the same compound?
The solubility (mole fraction) was 0.00195.

And the solubility (mole fraction) (in water, 323.15 K)?
The solubility (mole fraction) was 0.00237.

And the solubility (mole fraction) (in water, 333.15 K)?
The solubility (mole fraction) was 0.00326.
